{"source": "patent US20030162777A1", "about": "“Novel N-acylated heterocycles” (Recordati S.A., priority 2001, published 2003)", "key": {"anaesthetised rats": {"test_system": "anaesthetised rats", "assay": "Effects on rhythmic bladder-voiding contractions induced by bladder filling in anaesthetised rats", "format": "in vivo, rat", "settings": "for ED50: Rattus norvegicus", "method": "Female Sprague-Dawley rats weighing 225-275 g (Crl: CDo Br, Charles River Italia) were used. The animals were housed with free access to food and water and maintained on a forced 12-hour alternating light-dark cycle at 22-24° C. for at least one week, except during the experiment. The activity on rhythmic bladder voiding contractions was evaluated according to the method of Dray (Dray J., Pharmacol. Methods, 13:157, 1985), with some modifications as in Guarneri (Guarneri, Pharmacol. Res. 27:173, 1993). Briefly, the rats were anaesthetised by subcutaneous injection of 1.25 g/kg (5 ml/kg) urethane, after which the urinary bladder was catheterised via the urethra using PE 50 polyethylene tubing filled with physiological saline. The catheter was tied in place with a ligature around the external urethral orifice and was connected to conventional pressure transducers (Statham P23 ID/P23 XL). […] The bladder was then filled via the recording catheter by incremental volumes of warm (37° C.) saline until reflex bladder-voiding contractions occurred (usually 0.8-1.5 ml). For intravenous injection of bioactive compounds, PE 50 polyethylene tubing filled with physiological saline was inserted into the jugular vein.\nFrom the cystometrogram, the number of contractions recorded 15 minutes before (basal values) and after treatment, as well as the mean amplitude of these contractions (mean height of the peaks in mmHg), was evaluated.\nSince most compounds produced an effect that was relatively rapid in onset and led to a complete cessation of bladder contractions, bioactivity was conveniently estimated by measuring the duration of bladder quiescence (i.e. the length of the time during which no contractions occurred). The number of tested animals showing a reduction in the number of contractions higher than 30% of that observed in the basal period was recorded too.\nThe extrapolated doses which induced a reduction in the number of contractions greater than 30% in 50% of the treated rats (ED50) were evaluated by the method of Bliss (Bliss C. I., Quart J. Pharm. Pharmacol. 11, 192-216, 1938)."}, "conscious rats": {"test_system": "conscious rats", "assay": "Effect on cystometric parameters in conscious rats after oral administration", "format": "in vivo, rat", "settings": "3 mg/kg p.o., 1-5 h after treatment, versus vehicle", "method": "Male Sprague-Dawley rats [Crl: CD° (SD) BR] of 300-400 g supplied by Charles River Italia were used. The animals were housed with free access to food and water and maintained on a forced 12-hour-light/12-hour-dark cycle at 22-24° C. of temperature, except during the experiment. To quantify urodynamic parameters in conscious rats, cystometrographic studies were performed according to the procedure previously reported (Guarneri et al., Pharmacol. Res. 24: 175, 1991).\nBriefly, the rats were anaesthetised by intraperitoneal administration of 3 ml/kg of Equithensin solution (pentobarbital 30 mg/kg and chloral hydrate 125 mg/kg) and placed in a supine position. An approximately-10-mm-long midline incision was made in the shaved and cleaned abdominal wall. The urinary bladder was gently freed from adhering tissues, emptied and then cannulated via an incision in the bladder body, using a polyethylene cannula (0.58-mm internal diameter, 0.96-mm external diameter) which was permanently sutured with silk thread. The cannula was exteriorised through a subcutaneous tunnel in the retroscapular area, where it was connected to a plastic adapter in order to avoid the risk of removal by the animal. For drug testing, the rats were utilised one day after implantation.\nOn the day of the experiment, the rats were placed in modified Bollman cages, i.e. restraining cages that were large enough to permit the rats to adopt a normal crouched posture, but narrow enough to prevent turning around. […] The intraluminal-pressure signal during infusion of saline into the bladder was continuously recorded on a polygraph (Rectigraph-8K San-ei with BM614/2 amplifier from Biomedica Mangoni) and, from the cystometrogram, two urodynamic parameters were evaluated: bladder volume capacity (BVC) and micturition pressure (MP). […] Basal BVC and MP values were evaluated as mean of the values observed in the cystometrograms recorded in an initial period of 30-60 minutes. […] The bladder infusion restarted and changes in BVC and MP were evaluated from the mean values obtained in the cystometrograms observed during 1, 2, 3, 4 and 5 hours after treatment. […]\nAll data were expressed as mean±standard error. Time-course data were analysed by S.A.S./STAT software, version 6.12. The difference between vehicle and active-treatment effect was evaluated by: General Linear Model Procedure—Repeated Measures Analysis of Variance: Univariate test of Hypotheses for within Subject Effects—Analysis of Variance of Contrast Variables. […]"}}, "note": "Read-outs that look alike come from different tables or passages of the source."}
{"smiles": "CCN(CC)CC#CCOC(=O)C(O)(c1ccccc1)C1CCCCC1", "note": "(stereo not drawn) [Oxybutynin, oxybutynin, reference compound]", "values": [{"measurement": "ED50", "setting": "anaesthetised rats; intravenous administration, urethane-anaesthetised rats, read-out: ED50 frequency (extrapolated dose inducing a reduction of the number of contractions >30% in 50% of treated rats)", "result": "> 10", "unit": "mg/kg"}, {"measurement": "ED50", "setting": "anaesthetised rats; intravenous administration, n.a. = not active, no significant reduction of the height of the peaks, read-out: ED50 amplitude (extrapolated dose inducing a 30% reduction of amplitude of the contractions in 50% of treated rats)", "result": 0.24, "unit": "mg/kg"}, {"measurement": "ED10 min (extrapolated dose inducing 10 minutes of disappearance of the contractions)", "setting": "anaesthetised rats; intravenous administration, urethane-anaesthetised rats", "result": 7.77, "unit": "mg/kg"}, {"measurement": "cessation of bladder contractions (in words)", "setting": "anaesthetised rats; intravenous, anaesthetised rats", "result": "does not cause cessation of bladder contractions"}, {"measurement": "effect on bladder volume capacity (BVC)", "setting": "conscious rats", "result": "slight, not-significant increase"}, {"measurement": "effect on micturition pressure (MP)", "setting": "conscious rats", "result": "greatly reduced"}]}
